Data set [1] concerns lymphocytic leukemia P388. As to conditions: Wani et al. 1973; cited from earlier work.
In data set [2] the test system is cultivated cells of human epidermoid carcinoma of the mouth (KB). The data set can be described thus: KB Cell Culture Screen (NCI Protocol 1.600). Format: cell-based. As to conditions: for IC50: Homo sapiens, KB, 72 h, 3 days after drug addition, activity indicated for ED50 ≤30 μg./ml., read-out: ED50 (dose that inhibits growth to 50% of control growth). As to the method:
The KB Cell Culture Screen used in guiding the above-described fractionations was conducted in accordance with the National Cancer Institute (NCI) Protocol 1.600 [Geran et al., Cancer Chemother. Rep., Part 3, 3:17 (1972)] in which the effectiveness of the test compounds against cultivated cells of human epidermoid carcinoma of the mouth was evaluated. The results of this procedure are expressed as the dose that inhibits growth to 50% of control growth by 3 days after drug addition. Such a dose is referred to as ED50 and activity is indicated for ED50 levels of ≤30 μg./ml. The smaller the ED50 level, the more cytotoxic the test material. The activities of the crystallized compounds isolated above are reported below in Table III.

Data set [3] has as its system lymphocytic leukemia P388. Kind of data set: PS system against lymphocytic leukemia P388 in mice (NCI Protocol 1.200). Format: in vivo. As to conditions: i.p. once a day for 9 days. As to the method:
Another indication of fraction activity is the effectiveness in the PS system against lymphocytic leukemia P388 in mice. These assays are conducted according to the NCI Protocol 1.200 described in Geran et al., supra. Starting 24 hours after the tumor implantation, previously determined doses of each compound were injected intraperitoneally once a day for 9 days. Survival time of treated leukemic mice is compared to that of untreated mice (T/C×100). A T/C value of 100% indicates no activity. A T/C value greater than 100% means that the treated mice are surviving longer than the control mice. A compound giving a T/C value greater than 125% is indicative of activity as defined by the NCI Protocols, above.

The next data set has as its system B16 melancarcinoma. The data set can be described thus: B1 system against B16 melancarcinoma in mice (NCI Protocol 1.300). It counts as in vivo. As to conditions: i.p. once a day for 9 days, vehicle Klucel, male B6C3F1 mice. As to the method: Trewiasine was also evaluated in the B1 system against B16 melancarcinoma in mice. This assay is conducted in accordance with the NCI Protocol 1.300 described in Geran et al., supra. Starting 24 hours after the tumor implantation, predetermined doses of the compound were injected intraperitoneally once a day for 9 days. The results are reported in Table V below as the percent T/C.

In brackets after ≈: the same amount, converted by molar mass. Entries after “also recorded” stand apart in the source; their conditions may differ.

For the molecule `COc1cc2cc(c1Cl)N(C)C(=O)CC(OC(=O)C(C)N(C)C(=O)C(C)C)C1(C)OC1C(C)C1CC(O)(NC(=O)O1)C(OC)C=CC=C(C)C2OC(C)=O` (stereo not drawn) [colubrinol acetate], the “activity against lymphocytic leukemia P388” value in data set [1] is “activity against lymphocytic leukemia P388 at the microgram per kilogram level”.
For the molecule `COc1cc2cc(c1Cl)N(C)C(=O)CC(OC(=O)C(C)N(C)C(=O)C(C)C)C1(C)OC1C(C)C1CC(O)(NC(=O)O1)C(OC)C=CC=C(C)C2O` (stereo not drawn) [colubrinol], the “activity against lymphocytic leukemia P388” value in data set [1] is given as “activity against lymphocytic leukemia P388 at the microgram per kilogram level”.
One may read the T/C as the ratio of treated to control. For `C=C(C)C(=O)N(C)C(C)C(=O)OC1CC(=O)N(C)c2cc(cc(OC)c2Cl)C(OC)C(C)=CC=CC(OC)C2(O)CC(OC(=O)N2)C(C)C2OC12C` (stereo not drawn) [dehydrotrewiasine], the IC50 in data set [2] was less than 10 ng/mL. For the same molecule, the T/C in data set [3] (4.00 μg./kg./inj., vehicle biological saline, male CDF1 mice) is 120%; in data set [3] (8.00 μg./kg./inj., vehicle biological saline, male CDF1 mice) it was 127%; in data set [3] (16.00 μg./kg./inj., vehicle biological saline, male CDF1 mice), 120%; in data set [3] (32.00 μg./kg./inj., vehicle biological saline, male CDF1 mice), 145%.
Turning to `COc1cc2cc(c1Cl)N(C)C(=O)CC(OC(=O)C(C)NC(=O)C(C)C)C1(C)OC1C(C)C1CC(O)(NC(=O)O1)C(OC)C=CC=C(C)C2OC` (stereo not drawn) [demethyltrewiasine], in data set [2], the IC50 was less than 10 ng/mL.
Turning to `COc1cc2cc(c1Cl)N(C)C(=O)CC(OC(=O)C(C)N(C)C(=O)C(C)C)C1(C)OC1C(C)C1CC(O)(NC(=O)O1)C(OC)C=CC=C(C)C2OC` (stereo not drawn) [trewiasine, 15-methoxymaytanbutine], the T/C was 133% in the data set on B16 melancarcinoma (1.00 μg./kg./inj.); 140% in the data set with B16 melancarcinoma (2.00 μg./kg./inj.); 157% in the data set with B16 melancarcinoma (4.00 μg./kg./inj.); 185% in the data set with B16 melancarcinoma (8.00 μg./kg./inj.); 172% with B16 melancarcinoma (16.00 μg./kg./inj.); 183% in the data set with B16 melancarcinoma (32.00 μg./kg./inj.). For the same molecule, the T/C in data set [3] (4.00 μg./kg./inj., vehicle Klucel, female CDF1 mice) was 163%; in data set [3] (8.00 μg./kg./inj., vehicle Klucel, female CDF1 mice), 140%; in data set [3] (16.00 μg./kg./inj., vehicle Klucel, female CDF1 mice), 154%; in data set [3] (32.00 μg./kg./inj., vehicle Klucel, female CDF1 mice), 128%; in data set [3] (64.00 μg./kg./inj., vehicle Klucel, female CDF1 mice), 91%. Also, in data set [2], the IC50 amounted to 0.2 ng/mL (≈ 0.267 nM). Further, the “cytotoxicity relative to that reported by Kupchan for other maytansinoids” value in data set [2] (KB system, compared with maytansine, maytanbutine and similar compounds) was “one or more orders of magnitude less; also recorded: at least one order of magnitude less”.
